Measurements published in patent US12636311B2, “Topically administered strontium-containing complexes for treating pain, pruritis and inflammation” (Galleon Labs LLC, priority 2012, dated 2026).

Tests used:
[1] = tested on: brachioradial pruritus; assay: Brachioradial pruritus, itch severity reported by subject; type: in vivo, human; conditions: topical treatment, moderate to severe itch
Excerpt: A person suffered from brachioradial pruritus for over 20 years, a neuropathic condition that is believed to be caused by compression of cervical nerves that innervate the mid-back and arms. They experienced moderate to severe itching typically most intense on their arms, neck and shoulders.
During the last several years, the subject treated their condition with either strontium alone (4% or 6% elemental strontium) and with a spray formulation of strontium+ Gallic Acid+ NAC. […] Reapplication 3 or 4 times over a 10-20 minute period increased that anti-itch benefit and reduced the itching by about 50%. […] If itching remained, a second spray eliminated the remaining itching.
Subsequent blinded tests were performed in which either 4% strontium only or 6% strontium only was directly compared to 4% strontium+ Gallic Acid+ NAC. Since the subject's brachioradial pruritus typically produced itching of approximately equal intensity on both arms in a bilaterally-symmetrical pattern, strontium alone was applied to one arm and strontium+ Gallic Acid+ NAC was applied to the contralateral arm in a double-blinded manner and itch severity was reported by the subject.

[2] = tested on: TCN activation by 70% glycolic acid peel; conditions: strontium mixed with 70% glycolic acid, pH 0.6; cited from earlier work
[3] = tested on: synchronous neurotransmitter release in response to TCN activation; conditions: strontium substitutes for calcium; cited from earlier work

| Compound | Anti-itch benefit (in words) [1] | Suppression of burning pain and stinging [2] | Reduction of amplitude of synchronous neurotransmitter release [3] |
| --- | --- | --- | --- |
| CN(C)CCOC(c1ccccc1)c1ccccc1 [diphenhydramine] | limited benefit only when the itching was mild | – | – |
| [Sr+2] [strontium] | – | ≥ 80% | more than 90% |
| C[C@]12CCC(=O)C=C1CC[C@@H]1[C@@H]2[C@@H](O)C[C@@]2(C)[C@H]1CC[C@]2(O)C(=O)CO [hydrocortisone] | no anti-itch benefit | – | – |
